A melting point compilation (Tetko et al.)

Conditions: a range is the spread between reports

Compound	melting point [°C]
ClC(Cl)=C(Cl)C(Cl)(Cl)Cl	-73 to -72.9
Cc1c(C)c(C)c(CCl)c(C)c1C	82 to 83
CC(C)(C)N=C=S	10 to 10.5
N#CC(c1ccccc1)c1ccccc1	74 to 74.3
CC1(C)OC(=O)CC(=O)O1	94 to 98
NNC(=O)NN	154 to 158
ClCCBr	-18 to -16.7
Fc1cc(F)c(F)c(F)c1F	-48 to -47.3
NCCO	10 to 11
Brc1c(Br)c(Br)c(Oc2c(Br)c(Br)c(Br)c(Br)c2Br)c(Br)c1Br	305 to 306
CCCCCS	-76 to -75.7
CCOC(=O)C(NC=O)C(=O)OCC	48.5 to 53
CCOC(=O)C(C)C	-88.2 to -88
ICCI	80 to 83
FC(F)F	-160 to -155
N#Cc1c[nH]c2ccccc12	180
Oc1ccc(I)cc1	92 to 94
CC(C)C(C)(C)C(C)(C)C	-36.4 to -36
Clc1ccc(-c2ccc(Cl)cc2)cc1	149
Nc1c(F)c(F)cc(F)c1F	31 to 31.5
NNc1c(F)c(F)cc(F)c1F	89 to 92
CCCCCCOC(C)=O	-80.9 to -80
CCCCCCCCCCCCCCBr	5 to 5.6

Compound	melting point [°C]
CC(C)C(C)(C)O	-14 to -10
C=CCC(C)C	-154 to -153
C=CC(=O)NC(C)(C)CC(C)=O	55 to 57.5
Nc1ccccc1	-6.3 to -6
O=[N+]([O-])NC1=NCCN1Cc1ccc(Cl)nc1	140 to 144
NCCCN1CCN(CCCN)CC1	14 to 15
CC(C)CCC(C)(C)C	-106
O=C(c1ccccc1)C(Cl)Cl	20.5 to 21
CCC(C)(C)C	-100 to -99
BrCc1ccc(Br)cc1	62 to 63
C1CC[C@H]2CCCC[C@H]2C1	-43 to -42.9
Cc1ccc(N=C=S)cc1	25 to 25.5
CC1(C)CCCC1	-70 to -69.8
COC(C)OC	-113
CC/C=C/C(C)C	-142
CCC	-188
OCC1OC(OC2(CO)OC(CO)C(O)C2O)C(O)C(O)C1O (configuration not stated)	186 to 188
CCC#N	-93 to -92
Cc1ccc(N)cc1C	50 to 51
CCCCOCCO	-79 to -74.8
C=CCCCCC(=O)O	-6.5 to -6
CCCCCC(C)(C)O	-50.4 to -50
N#CN	44 to 45.6

Compound	melting point [°C]
Cn1c(=O)c2c(ncn2C)n(C)c1=O	235 to 238
CCC(C)(O)C#CC(C)(O)CC (configuration not stated)	53 to 54
O=C1CCCN1	23 to 24
C#CC(C)(C)C	-78.2 to -78
Oc1ccc(-c2ccccc2)cc1	165 to 167
CC1CCC2CC1C2(C)C (configuration not stated)	-53 to -50
CCC#CCCC	-131 to -130
CC(=O)C(C)(C)C	-53 to -52
Cc1ccccc1O	29.8 to 33
COP(=S)(OC)Oc1ccc(SC)c(C)c1	7 to 7.5
CCCCCCCCCS	-20.1 to -20
CC(C)CCCC(C)C	-103
BrCCCCCCCCBr	15.5 to 16
CCC(C)C	-160
C=C(C)C	-140
CCCCCCCCCCCCCCCO	45.5 to 46
COC(=O)C(Cl)(Cl)Cl	-18 to -17.5
CCC(=O)C(CC(C)N(C)C)(c1ccccc1)c1ccccc1 (configuration not stated)	98.8 to 102
CCC1=CCCCC1	-110
C=CC(C)CC (configuration not stated)	-154 to -153
NCc1cccnc1	-21.1 to -21
N#CCC(N)=O	120 to 122
CCCCCCCCC(=O)CCCCCCCC	52 to 53

Compound	melting point [°C]
CCCCC(C)CCC (configuration not stated)	-113
CC1CCC1	-162
CC1=CCC(C(C)(C)O)CC1O (configuration not stated)	130 to 131
CCC(C)=C(C)C	-118
O=[N+]([O-])c1cccc(O)c1	94 to 98
O=C(O)COCC(=O)O	143 to 148
CC(C)(C)S	-0.5 to 1
Cc1ccc(N)cc1N	97 to 99
O=[N+]([O-])c1cc([N+](=O)[O-])c2ccccc2c1	147 to 148
O=[N+]([O-])c1ccc(O)c(Cl)c1	106 to 110
CNC(=O)NC(C)=O	178 to 180
CC(C)(C)I	-38.2 to -38
CCCCCCCC/C=C\CCCCCCCCCCCC(N)=O	77.5 to 79
CCCCCCCCCCCCCCCCC(=O)O	60 to 61.3
O=C(O)CCCCCBr	34 to 35
C[Si]1(C)O[Si](C)(C)O[Si](C)(C)O1	60 to 65
CC(C)OC(=O)Nc1ccccc1	87.3 to 88
CC(C)(C)C1=CC(=O)C=C(C(C)(C)C)C1=O	66 to 67
CS(C)(=O)=O	109 to 110
CCC(Br)CC	-126

More lines, now with the values ahead:

melting point [°C]	Compound
13.5 to 14	CCOc1ccc(C=O)cc1
219 to 220	CCCc1cc(O)nc(S)n1
105 to 107	O=C(Oc1ccc2ccccc2c1)c1ccccc1
91 to 92	OCc1ccccc1I
-42.2 to -40	Fc1ccccc1
53 to 54	CC(=O)Oc1ccc(C(C)=O)cc1
205 to 206	O=C(O)c1ccccc1N=Nc1ccc(O)cc1
182 to 183	O=C(O)c1ccc(Cl)c([N+](=O)[O-])c1
220 to 221	O=C(O)c1ccc(C(F)(F)F)cc1
174 to 175	Cc1ccc(N(CC2=NCCN2)c2cccc(O)c2)cc1
65 to 66	O=C(O)C(=O)c1ccccc1
4.5 to 6	O=C(CO)c1ccccc1
242 to 243	CN(C)c1ccc(C(=O)O)cc1
82 to 83	COc1ccc(Cl)cc1N
68 to 71	Cc1cc(Cl)c(C)cc1Cl
92 to 94	O=S(=O)(c1ccccc1)c1ccc(Cl)cc1
120 to 122	Nc1cccc(N)n1
15 to 16	c1ccc(NC2CCCCC2)cc1
42 to 42.5	COC(=O)c1cccnc1
79.5 to 82	N#Cc1cccc(O)c1
76 to 81	O=S(=O)(Cl)c1ccc2ccccc2c1

melting point [°C]	Compound
139 to 143	O=C(Oc1ccc([N+](=O)[O-])cc1)c1ccccc1
6 to 8.2	C=C(c1ccccc1)c1ccccc1
102 to 104	NNc1cc(Cl)ccc1Cl
-0.2 to 0	Cc1ccccc1-c1ccccc1
16 to 19	CC(C)(C)c1ccc(Br)cc1
60 to 60.8	OC(c1ccccc1)c1ccc(Cl)cc1 (configuration not stated)
100 to 101	O=C(c1ccccc1)c1ccc(-c2ccccc2)cc1
127 to 130	CCC(=O)c1cc(F)c(O)c(F)c1
237 to 238	O=C(O)c1cccnc1
112 to 115	O=[N+]([O-])c1ccc(O)cc1
54 to 56	O=[N+]([O-])c1cccc(Br)c1
-21.5 to -21	c1ccc2c(c1)CCO2
155 to 157	O=C(O)c1cccc(Br)c1
59 to 60.5	CN(C)c1cccc([N+](=O)[O-])c1
-70 to -66.7	Cc1ccccn1
160 to 161	O=C(O)Cc1ccc(-c2ccccc2)cc1
59 to 62	O=[N+]([O-])c1cccc(-c2ccccc2)c1
133 to 135	O=C(O)/C=C/c1ccccc1
54.5 to 56.5	CC(C)(C)c1ccc(O)c(C(C)(C)C)c1
114 to 115	COc1cc(CO)ccc1O
83 to 86	CC(=O)c1ccc(I)cc1

melting point [°C]	Compound
-63 to -62.6	CCc1ccc(Cl)cc1
-27.3 to -27	Brc1cccnc1
173 to 176	CC(=O)c1ccc(OCC(=O)O)cc1
82 to 85	O=S(=O)(Cl)c1ccc(I)cc1
90 to 90.5	c1c[nH]cn1
33 to 34	CC(=O)c1ccc(Cl)cc1Cl
122 to 123	Nc1ccc(C(=O)c2ccccc2)cc1
108 to 113	NC(=O)c1ccccc1N
-30 to -29.5	CCOc1ccccc1
82 to 86	CN(C)c1cccc(O)c1
24 to 25	Clc1ccc(Br)cc1Cl
437 to 440	c1cc2ccc3ccc4ccc5ccc6ccc1c1c2c3c4c5c61
57.5 to 58	CCCCOC(=O)c1ccc(N)cc1
188 to 189	Nc1ncc2ncn(COCCO)c2n1
210 to 212	O=C(O)c1cccc([N+](=O)[O-])c1C(=O)O
28 to 30	c1ccc2nccnc2c1
14.5 to 16	N#Cc1cccc(C(F)(F)F)c1
105 to 106	O=C(NCc1ccccc1)c1ccccc1
48 to 52	O=C(O)CCCc1ccccc1
9 to 12.4	O=Cc1ccccc1Cl
-13.5 to -13	Cc1ccc(Cl)cc1Cl

melting point [°C]	Compound
24 to 26	c1ccc(CNCCNCc2ccccc2)cc1
53 to 56	CC(=O)c1ccc2ccccc2c1
156 to 157	NC(=O)c1ccncc1
154 to 157	O=C1OC2(OC=C(c3ccccc3)C2=O)c2ccccc21 (configuration not stated)
10 to 13.5	COc1ccc(Br)cc1
7 to 8	Cc1ccc(Cl)cc1
173 to 176	O=[N+]([O-])c1ccc(I)cc1
50 to 51	O=C(Cl)c1ccc2ccccc2c1
173 to 178	NC(=O)c1ccc(Cl)cc1
186	O=C(O)CCC(=O)c1ccc(-c2ccccc2)cc1
300 to 302	O=c1c(-c2ccc(O)cc2)coc2cc(O)cc(O)c12
70 to 72.5	CC1=CC(=O)C=C(C)C1=O
142 to 147	Cc1ccccc1C(N)=O
117 to 118	O=Cc1ccc(O)cc1
29 to 32	CS(=O)c1ccccc1 (configuration not stated)
169 to 170	O=C(O)c1ccccc1-c1ccc(C(F)(F)F)cc1
174 to 175	O=Cc1cccc(C(=O)O)c1
105 to 106	Oc1ccccc1O
230	O=c1ccc2ccc(O)cc2o1
230 to 232	O=C(O)c1cc([N+](=O)[O-])ccc1O
